“Also recorded” adds a separate entry of the source.
Key:
[1] = system: HLA-B*0702 transgenic mice; assay: Vaccination of HLA-B*0702 transgenic mice (peptide + IC31), IFN-gamma ELISpot with spleen cells and CD8+ fraction; type: in vivo, mouse; details: for Immunogenicity, peptide-specific IFN-gamma-producing cells, B*0702: HLA-B*0702 transgenic mice, splenocytes; for specific INF-γ producing T cells / HLA-B*0702 epitope in HLA-B*0702 transgenic mice (in words): peptide + IC31, whole spleen cells and CD8+ fraction
Outline: (§1)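 Transgenic mice (groups of 5, male, 8–14 weeks) vaccinated s.c. in hind footpads with 100 μg peptide + IC31; 6 days later pooled splenocytes or MACS-purified CD8+ (A2, B7) or CD4+ (DR4) fractions restimulated overnight with peptide. IFN-gamma spots counted by ELISpot, 1×10^6–3×10^5 cells/well.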

[2] = system: HLA-A*0201 transgenic mice; assay: Immunization of HLA-A*0201 transgenic mice (peptide + CpI), splenocyte IFN-gamma ELISpot; type: in vivo, mouse; details: for immunogenicity in HLA-A*0201 transgenic mice (in words): Example II, IFN-gamma ELISpot of splenocytes; for Immunogenicity, peptide-specific IFN-gamma-producing cells, A*0201: HLA-A*0201 transgenic mice, splenocytes
Outline: (§2)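 Read-out is IFN-gamma ELISpot on splenocytes stimulated overnight with immunizing peptide, control peptide or medium alone, scored + (<100) or ++ (>100 peptide-specific cells per 10^6 splenocytes). Immunization: 100 μg peptide with 30 μg CpI per mouse, s.c. flank, three 8-week-old females per group.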

[3] = system: HLA-A*0201 transgenic mice; assay: Vaccination of HLA-A*0201 transgenic mice (peptide + IC31), IFN-gamma ELISpot with spleen cells and CD8+ fraction; type: in vivo, mouse; details: peptide + IC31, whole spleen cells and CD8+ fraction
Description: Mouse splenocyte ELIspot assay for single cell IFN-gamma release ELISpot plates (MAHA S4510, Millipore, Germany) were rinsed with PBS (200 μl/well), coated with anti-mouse IFN-gamma mAb (clone R46A2; 100 μl/well of 5 μg/ml in 0.1 M NaHCO3, pH 9.2-9.5) and incubated overnight at 4° C. Plates were washed four times with PBS/0.1% Tween 20 and incubated with PBS/1% BSA (200 μl/well) at room temperature for 2 h to block nonspecific binding. Spleen cells from vaccinated mice were prepared and plated at 1×10^6-3×10^5 cells/well and incubated overnight at 37° C./5% CO2 either in the presence of the immunizing antigen (peptide), control peptides or with medium alone. Subsequently, plates were washed four times and incubated with biotinylated anti-mouse IFN-gamma mAb (clone AN18.17.24, 100 μl/well of 2 μg/ml in PBS/1% BSA) for 2 h at 37° C. After washing, streptavidin-peroxidase (Roche Diagnostics, Vienna, Austria) was added ( 1/5000 in PBS, 100 μl/well) and plates were incubated at room temperature for 2 additional hours. Subsequently, substrate was added to the washed plates (100 μl/well of a mixture of 10 ml 100 mM Tris pH 7.5 supplemented with 200 μl of 40 mg/ml DAB stock containing 50 μl of 80 mg/ml NiCl2 stock and 5 μl of 30% H2O2). The reaction was stopped after 20-30 minutes by washing the plates with tap water. Dried plates were evaluated with an ELISpot reader (BIOREADER 2000, BioSys, Karben, Germany).
Groups of 5 mice (HLA-A*0201-, HLA-DRB1*0401- and HLA-B*0702 transgenic mice, male, 8-14 weeks of age) were injected subcutaneous into the hind footpads with 100 μg of peptide +IC31 per mouse (50 μg per footpad). (PCT/EP01/12041, WO 02/32451 A1 and PCT/EP01/06433, WO 01/93905 A1; IC31 is a combination of the immunizer disclosed in WO 01/93905 and WO 02/32451).
6 days after vaccination single cell suspension of pooled spleens were prepared and additionally pure fractions of CD8+ in the case of A2 and B7 tg mice (CD8+ fraction for B7 mice containing 97% of CD8 and 1.5% of CD4 cells and for A2 tg mice 83% of CD8 and 8% of CD4 cells) and CD4+ for DR4tg mice (CD4+ fraction for DR4tg mice containing 98% of CD4 cells and 0.2% of CD8 cells) were separated from the spleen cell suspension using MACS separating kit (Miltenyi, Germany).

HLA-DRB1*0101 = HLA-DRB1*0101 (Homo sapiens, UniProt P01903+P01911, A100R/D57E/F55L/F60I/F76Y/I96L/L162R/M171V/P40L/Q125E/R42F/V115G/Y59C); assay: Epitope capture / peptide binding, SDS-stability assay, soluble DRB1*0101; details: soluble HLA class II, individual peptide confirmed (Table 2)
[4] = system: HLA-DRB1*0401 transgenic mice; assay: Vaccination of HLA-DRB1*0401 transgenic mice (peptide + IC31), IFN-gamma ELISpot with spleen cells and CD4+ fraction; type: in vivo, mouse; details: peptide + IC31, whole spleen cells and CD4+ fraction
Outline: as §1

[5] = system: HLA-DRB1*0401 transgenic mice; assay: Immunization of HLA-DRB1*0401 transgenic mice (peptide + CpI), splenocyte IFN-gamma ELISpot; type: in vivo, mouse; details: for immunogenicity in HLA-DRB1*0401 transgenic mice (in words): Example II, IFN-gamma ELISpot of splenocytes; for Immunogenicity, peptide-specific IFN-gamma-producing cells, DRB1*0401: HLA-DRB1*0401 transgenic mice, splenocytes
Outline: as §2

HLA class II = HLA class II coverage of hotspots and epitopes, compiled from the Examples and Tables of this specification (epitope capture, HLA-transgenic animals, in vitro stimulation of human mononuclear cells); details: source data: Examples and Tables within this specification
HLA-B*0702 = HLA-B*0702 (Homo sapiens, UniProt P01889); assay: Competition-type peptide binding assay, soluble HLA-B*0702, FITC-labelled reference peptide; details: for HLA-B*0702 minimal epitope (in words): short peptides from Ipep 1587 with HLA-B*0702 binding motifs
Description: These were tested in a competition-type peptide binding assay using soluble HLA-B*0702 and the FITC-labelled reference peptide […] (SEQ ID NO:1033), which is a known HLA-B*0702 epitope derived from EBV (Stuber et al., 1995). […] Thus it is likely to present the minimal HLA-B*0702 epitope contained in Ipep 1587.

HLA-DRB1*0404 = HLA-DRB1*0404 (Homo sapiens, UniProt P01903+P01911, A100R/A169T/F76Y/I96L/K127E/L162R/M171V/N62H/P40V/Q125Y/R42H/S133A/S149N/S66Y/V209L/W38E); assay: Epitope capture / peptide binding, SDS-stability assay, soluble DRB1*0404; details: soluble HLA class II, individual peptide confirmed (Table 2)
HLA-DRB1*0401 = HLA-DRB1*0401 (Homo sapiens, UniProt P01903+P01911, A100K/A169T/F76Y/I96L/K127E/L162R/M171V/N62H/P40V/Q125Y/R42H/S133A/S149N/S66Y/V115G/V209L/W38E); assay: Epitope capture / peptide binding, SDS-stability assay, soluble DRB1*0401; details: soluble HLA class II, individual peptide confirmed (Table 2)
[6] = system: PBMC from HCV RNA-negativ therapy responders or subjects spontaneously recovered; assay: IFN-gamma ELIspot with human PBMC from HCV therapy responders or spontaneously recovered subjects; details: directly ex vivo, donor H04; >8 significant

Row | Sequence | Immunogenicity, peptide-specific IFN-gamma-producing cells, B*0702 [1] | specific INF-γ producing T cells / HLA-B*0702 epitope in HLA-B*0702 transgenic mice (in words) [1] | immunogenicity in HLA-A*0201 transgenic mice (in words) [2] | Immunogenicity, peptide-specific IFN-gamma-producing cells, A*0201 [2] | Binding to DRB1 *0101 (HLA-DRB1*0101) | immunogenicity in HLA-DRB1*0401 transgenic mice (in words) [5] | Immunogenicity, peptide-specific IFN-gamma-producing cells, DRB1*0401 [5] | HLA-class II coverage (HLA class II) | specific INF-γ producing T cells / HLA-A*0201 epitope in HLA-A*0201 transgenic mice (in words) [3] | specific INF-γ producing T cells / HLA-DRB1*0401 epitope in HLA-DRB1*0401 transgenic mice (in words) [4] | also measured
1 | VVCCSMSYTWTGALITPC [Peptide 1604] | ++ (strongly immunogenic (++, more than 100 peptide-specific cells among a million splenocytes)) | HLA-B*0702 epitopes with T-cell activating capacity | immunogenicity | ++ (strongly immunogenic (++, more than 100 peptide-specific cells among a million splenocytes)) | * (weak binding) | immunogenic; also recorded: immunogenicity | ++ (strongly immunogenic (++, more than 100 peptide-specific cells among a million splenocytes)) | DR1,4,7,11 | – | – | specific INF-γ producing T cells / HLA-B*0702 epitope in HLA-B*0702 transgenic mice (in words) ([1]; listed as Ipep1604): high numbers of specific INF-γ producing T cells; also recorded: class I epitopes; specific INF-γ producing T cells / HLA-A*0201 epitope in HLA-A*0201 transgenic mice (in words) ([3]; listed as Ipep1604): high numbers of specific INF-γ producing T cells; also recorded: class I epitopes; specific INF-γ producing T cells / HLA-DRB1*0401 epitope in HLA-DRB1*0401 transgenic mice (in words) ([4]; listed as Ipep1604): high numbers of specific INF-γ producing T cells; also recorded: class II epitope
2 | SPGALVVGVI [Peptide 1838] | – | – | – | – | – | – | – | – | – | – | competition of FITC-labelled reference peptide binding to soluble HLA-B*0702 (HLA-B*0702; 80-fold molar excess, 48 h at 37° C., reference peptide LPCVLWPVL): ~30%; HLA-B*0702 minimal epitope (in words) (HLA-B*0702): minimal HLA-B*0702 epitopes; HLA-B*0702 minimal epitope (in words) (HLA-B*0702; listed as Ipep 1838): HLA-B*0702 minimal epitope
3 | VVCCSMSYSWTGALITPC [Peptide 1605] | + (immunogenic (+, less than 100 peptide-specific cells among a million splenocytes)) | HLA-B*0702 epitopes with T-cell activating capacity | immunogenicity | + (immunogenic (+, less than 100 peptide-specific cells among a million splenocytes)) | nb (no binding) | immunogenicity | + (immunogenic (+, less than 100 peptide-specific cells among a million splenocytes)) | – | confirmed to contain human HLA-A*0201 epitopes | confirmed to contain human HLA-DRB1*0401 epitopes | specific INF-γ producing T cells / HLA-B*0702 epitope in HLA-B*0702 transgenic mice (in words) ([1]; listed as Ipep1605): weaker responses; Binding to DRB1 *0404 (HLA-DRB1*0404): * (weak binding); specific INF-γ producing T cells / HLA-A*0201 epitope in HLA-A*0201 transgenic mice (in words) ([3]; listed as Ipep1605): weaker responses; specific INF-γ producing T cells / HLA-DRB1*0401 epitope in HLA-DRB1*0401 transgenic mice (in words) ([4]; listed as Ipep1605): weaker responses; Binding to DRB1 *0401 (HLA-DRB1*0401): nb (no binding); peptide-specific IFN-gamma secreting T-cells, donor H04 [6]: 25 T-cells/10^6 PBMC
4 | VDYPYRLWHYPCTVNFTIFKVRMYVGGVEHRL [Peptide 1650] | + (immunogenic (+, less than 100 peptide-specific cells among a million splenocytes)) | HLA-B*0702 epitopes with T-cell activating capacity | immunogenicity | ++ (strongly immunogenic (++, more than 100 peptide-specific cells among a million splenocytes)) | – | immunogenicity | ++ (strongly immunogenic (++, more than 100 peptide-specific cells among a million splenocytes)) | DR1,4,7,11 | confirmed to contain human HLA-A*0201 epitopes | confirmed to contain human HLA-DRB1*0401 epitopes | –

From US7378234B2, “Method for isolating hepatitis C virus peptides” (Intercell AG, priority 2002, dated 2008)
